Laboratory results published in ChEMBL document CHEMBL1649095, “A κ Opioid Pharmacophore Becomes a Spinally Selective κ-δ Agonist When Modified with a Basic Extender Arm” (2011).
Active and inactive are the calls of the source. The calls are words filed in the database; no cut-off is given here.

Key:
HEK293 [1] = assay: Selectivity for kappa/delta opioid receptor expressed in HEK293 cells over kappa/mu opioid receptor expressed in HEK293 cells by intracellular calcium release assay; type: cell-based
[2] = molecular target: Opioid receptors; delta & kappa (Homo sapiens) (UniProt P41145+P41143); assay: Agonist activity at kappa/delta opioid receptor expressed in HEK293 cells coexpressing chimeric Giiq protein assessed as stimulation of intracellular calcium; type: functional, cell-based
HEK293 [3] = assay: Selectivity for kappa/delta opioid receptor expressed in HEK293 cells over kappa opioid receptor expressed in HEK293 cells by intracellular calcium release assay; type: cell-based
Mus musculus [4] = assay: Antinociceptive activity in icv dosed HSD:ICR(CD1) mouse by tail flick test; type: functional
Mus musculus [5] = assay: Ratio of antinociceptive ED80 in intrathecally dosed HSD:ICR(CD1) mouse coadministered with 2.5 nmol kappa opioid receptor antagonist norBNI to ED80 in intrathecally dosed HSD:ICR(CD1) mouse; type: functional
HEK293 [6] = assay: Selectivity for kappa/delta opioid receptor expressed in HEK293 cells over mu opioid receptor expressed in HEK293 cells by intracellular calcium release assay; type: cell-based
Mus musculus [7] = assay: Antinociceptive activity in intrathecally dosed HSD:ICR(CD1) mouse by tail flick test; type: functional
HEK293 [8] = assay: Selectivity for kappa/delta opioid receptor expressed in HEK293 cells over mu/delta opioid receptor expressed in HEK293 cells by intracellular calcium release assay; type: cell-based
Mus musculus [9] = assay: Ratio of antinociceptive ED80 in intrathecally dosed HSD:ICR(CD1) mouse coadministered with 5 nmol delta opioid receptor antagonist NTI to ED80 in intrathecally dosed HSD:ICR(CD1) mouse; type: functional
Mus musculus [10] = assay: Potency index, ratio of antinociceptive ED50 in icv dosed HSD:ICR(CD1) mouse to antinociceptive ED50 in intrathecally dosed HSD:ICR(CD1) mouse; type: functional

Sequence of Opioid receptors; delta & kappa (Homo sapiens) (P41143 whole entry, looked up): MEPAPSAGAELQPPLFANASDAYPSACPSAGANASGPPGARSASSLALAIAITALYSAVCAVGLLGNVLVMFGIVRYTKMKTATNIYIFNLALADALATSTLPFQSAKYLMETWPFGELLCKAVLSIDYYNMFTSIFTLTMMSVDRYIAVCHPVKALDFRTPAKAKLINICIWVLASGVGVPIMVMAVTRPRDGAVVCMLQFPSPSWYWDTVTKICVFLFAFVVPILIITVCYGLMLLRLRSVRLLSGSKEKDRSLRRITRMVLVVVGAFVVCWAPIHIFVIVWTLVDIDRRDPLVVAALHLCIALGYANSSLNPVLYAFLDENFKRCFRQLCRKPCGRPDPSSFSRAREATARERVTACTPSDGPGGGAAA
Sequence of Opioid receptors; delta & kappa (Homo sapiens) (P41145 whole entry, looked up): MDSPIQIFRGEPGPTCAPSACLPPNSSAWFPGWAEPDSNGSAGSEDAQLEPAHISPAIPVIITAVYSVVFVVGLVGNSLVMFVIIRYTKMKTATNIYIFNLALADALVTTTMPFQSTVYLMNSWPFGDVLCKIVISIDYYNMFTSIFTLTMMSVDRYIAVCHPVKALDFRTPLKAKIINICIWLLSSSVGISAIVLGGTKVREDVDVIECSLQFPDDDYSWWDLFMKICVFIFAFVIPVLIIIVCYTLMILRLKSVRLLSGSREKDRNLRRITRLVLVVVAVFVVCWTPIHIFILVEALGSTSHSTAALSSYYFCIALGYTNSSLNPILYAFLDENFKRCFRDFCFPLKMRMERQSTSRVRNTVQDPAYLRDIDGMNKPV

Compound	Selectivity ratio (HEK293 [1])	Activity [2]	Selectivity ratio (HEK293 [3])	ED50 (Mus musculus [4]) [nmol]	Ratio (Mus musculus [5])	Selectivity ratio (HEK293 [6])	ED50 (Mus musculus [7]) [nmol]	Selectivity ratio (HEK293 [8])	Ratio (Mus musculus [9])	Ratio ED50 (Mus musculus [10])
CNCCCNC(=O)COCC(=O)NCC(=O)NCC(=O)Nc1cccc([C@@H](CN2CCCC2)N(C)C(=O)Cc2ccc(Cl)c(Cl)c2)c1	66	Active	66	0.58	28.5	66	0.0045	66	9.97	130.91
CNCCNC(=O)COCC(=O)NCC(=O)NCC(=O)NCC(=O)Nc1cccc([C@@H](CN2CCCC2)N(C)C(=O)Cc2ccc(Cl)c(Cl)c2)c1	–	–	–	0.4	–	–	0.035	–	–	11.43
CNCCCCNC(=O)COCC(=O)Nc1cccc([C@@H](CN2CCCC2)N(C)C(=O)Cc2ccc(Cl)c(Cl)c2)c1	–	–	–	0.52	–	–	0.15	–	–	3.45
CNCCCCNC(=O)COCC(=O)NCC(=O)Nc1cccc([C@@H](CN2CCCC2)N(C)C(=O)Cc2ccc(Cl)c(Cl)c2)c1	–	–	–	0.48	–	–	0.17	–	–	2.81
CN(C(=O)Cc1ccc(Cl)c(Cl)c1)[C@H](CN1CCCC1)c1cccc(NC(=O)CNC(=O)CNC(=O)COCC(=O)NCCCNC=O)c1	–	–	–	0.47	–	–	0.02	–	–	23.44
